The values below come from US20220362230A1, “USE OF GLUTARIMIDE DERIVATIVE FOR OVERCOMING STEROID RESISTANCE AND TREATING DISEASES ASSOCIATED WITH ABERRANT INTERFERON GAMMA SIGNALING” ("CHEMIMMUNE THERAPEUTICS" LIMITED LIABILITY COMPANY, priority 2018, published 2022).

Experiment [1] has as its system interferon-γ-dependent cytokine CXCL10 (interferon-gamma-induced protein IP10). The experiment can be described thus: Phase II clinical trial, CXCL10 concentration in blood plasma. Particulars: with baseline steroid therapy; patients with IFN-γ baseline level >100 pg/ml. It is filed as in vivo, human. How it is done:
(§1) During the study therapy phase, patients received Compound 1 or placebo for 12 weeks against the background of baseline steroid therapy with low doses of inhaled corticosteroids. Compound 1 or placebo was administered orally once a day, 30 minutes before breakfast.
(§2) To study the effect of the IFN-γ baseline level in patients with asthma, the results obtained in the clinical study were additionally analyzed; the patients' response to therapy was studied depending on their IFN-γ baseline level in the blood at the time of trial inclusion (determined by the Bio-Plex Pro Human Chemokine Panel Assay (Bio-Rad)).
(§3) Moreover, in the clinical trial, Compound 1 was also analyzed for its effect on IFN-γ signal transduction. […] Thus, the suppression of steroid resistance induced by the use of Compound 1 could potentially be associated with an effect on the aberrant activity (signaling) of IFN-γ.

For experiment [2], the system named is patients with bronchial asthma. The experiment can be described thus: Phase II clinical trial (PULM-XC8-02, NCT03450434), response to baseline inhaled corticosteroid therapy (FEV1). It is filed as in vivo, human. On the procedure:
Thus, Compound is potentially useful for the therapy of diseases associated with the development of steroid resistance, in particular for the treatment of steroid-resistant asthma.
In the clinical trial, eligible patients were randomized 1:1:1:1 to one of four groups: • Compound 1 at a dose of 2 mg per day; • Compound 1 at a dose of 10 mg per day; • Compound 1 at a dose of 100 mg per day; and • Placebo.
as §1
Thus, one of the effects of the use of Compound 1 is the overcoming of the resistance to corticosteroids, which is the backbone of the baseline therapy of patients enrolled in the clinical trial.
as §2
The patients' response to baseline therapy in the groups of baseline steroid therapy and placebo decreased with an increase in the IFN-γ baseline level (FIG. 2). […] This fact indicates the overcoming of steroid resistance that can be caused, inter alia, by aberrant IFN-γ signaling.

The subject of experiment [3] is cough induced by inhalation of citric acid and IFN-γ. Briefly: Guinea pig model of cough induced by inhalation of citric acid and IFN-γ. It is filed as in vivo, guinea pigs of the Aguti line. Particulars: for The number of coughing movements within 8 minutes: 7 hours before citric acid inhalation, M ± m, n=5. On the procedure:
The activity of Compound I in a model of cough in guinea pigs, which was induced by inhalation of citric acid and IFN-γ, was studied in accordance with the method [Am J Respir Crit Care Med. 2018. V. 198(7). P. 868-879].
In the study, guinea pigs of the Aguti line were used. All experimental animals were inhaled with a citric acid solution (0.3 M) prepared in physiological saline, for 8 minutes. The pathology control group and the groups receiving therapy were inhaled with IFN-γ (10 pg/kg) for 3 minutes at 7 hours before the inhalation of citrate. Compound 1 was administered intragastrically once, immediately after inhalation of IFN-γ, i.e. 7 hours before inhalation of the citric acid solution. The antitussive activity was evaluated by counting the number of coughing fits within 8 minutes from the start of inhalation of citric acid. All data were analyzed by descriptive statistics: arithmetic mean (M) and standard error of the arithmetic mean (m). The Shapiro-Wilk test was used to check the normality of the distribution of the obtained experimental data. A normal distribution was analyzed with 1-way ANOVA (with Dunnett's post-analysis) to assess intergroup differences. A non-normal distribution was analyzed with […] (with Tukey's post-analysis) to compare several groups. Differences were determined at a confidence level of 5%.

Experiment [4] relates to acute oxazolone-induced ulcerative colitis. Briefly: Murine model of acute oxazolone-induced ulcerative colitis. The format is in vivo, female balb/c mice. The settings on record: for The degree of large intestine wall damage, score: 72 hours after oxazolone, M ± m, n=10. How it is done: The activity of Compound 1 in a model of acute oxazolone-induced ulcerative colitis was studied using the standard method [Immunity. 2002. P. 629-638]. In the study, female balb/c mice (6-8 weeks old) were used. Compound I was administered intragastrically, three times: 1 hour, 25 hours, and 49 hours after rectal administration of oxazolone. The body weight of the animals was measured before and 24, 48 and 72 hours after administration of oxazolone. The intestinal wall damage was evaluated under a microscope 72 hours after administration of oxazolone, according to the following score scale: 0=no damage, 1=hyperemia, no ulcers, 2=hyperemia, thickening of the intestinal wall, no ulcers, 3=one ulcer without thickening of the intestinal wall, 4=2 or more sites of ulceration or inflammation, 5=2 or more serious sites of ulceration and inflammation, or one site of ulceration/inflammation, extending >1 cm along the length of the colon, and 6-10=damage covers>2 cm long the length of the colon, the score is increased by 1 for each additional 1 cm of involvement. All data were analyzed by descriptive statistics: arithmetic mean (M) and standard error of the arithmetic mean (m). The Shapiro-Wilk test was used to check the normality of the distribution of the obtained experimental data. A normal distribution was analyzed with 1-way ANOVA (with Dunnett's post-analysis) to assess intergroup differences. A non-normal distribution was analyzed with […] (with Tukey's post-analysis) to compare several groups. Differences were determined at a confidence level of 5%.

The next experiment concerns IFN-γ. Briefly: Phase II clinical trial, interferon-γ concentration in blood plasma. It is filed as in vivo, human. The settings on record: with baseline therapy, compared with baseline therapy and placebo; regardless of IFN-γ level at inclusion. On the procedure:
as §1, §2, §3

With `O=C1CCCC(=O)N1CCc1cnc[nH]1` [Compound 1, 1-(2-(1H-imidazol-4-yl)ethyl)piperidine-2,6-dione], the “Change in concentration of CXCL10 (IP10) in blood plasma, week 12 vs week 0” value in experiment [1] is given as “suppressed the concentration of interferon-γ-dependent cytokine CXCL10”. Also, the “Response to therapy (change in FEV1, week 12 vs. week 0)” value in experiment [2] (100 mg per day with baseline steroid therapy vs placebo, especially patients with IFN-γ level more than 100 pg/ml) is “significantly greater and clinically significant response to therapy”. The Clinical effect entry in experiment [2] (100 mg per day, 12 weeks, with baseline low-dose inhaled corticosteroids) is on record as “clinically significant effect”. Moreover, the “Number of patients with an increase in FEV1 by 100 ml or more (response to baseline steroid therapy)” value in experiment [2] (baseline steroid therapy and Compound 1, 12 weeks, oral once a day, placebo group 13 out of 29) is 20 patients out of 29. In addition, the entries for the “The number of coughing movements within 8 minutes” value in experiment [3] (1.4 mg/kg intragastrically once) and in experiment [3] (14 mg/kg intragastrically once) were 19.2 ± 2.7& and 18.4 ± 2.9&, respectively. Also, the “Effect on number of coughing movements” value in experiment [3] (administered intragastrically) is “reduced the number of coughing movements”. Moreover, the “The degree of large intestine wall damage, score” value in experiment [4] (0.3 mg/kg intragastrically x3) is listed as 1.70 ± 0.30 score; in experiment [4] (3 mg/kg intragastrically x3) it was 1.89 ± 0.31 score; in experiment [4] (30 mg/kg intragastrically x3), 1.40 ± 0.16& score. Besides, the Body weight was determined as 17.9 ± 0.2 g in experiment [4] (0.3 mg/kg, 24 hours after administration of oxazolone); 17.5 ± 0.3 g in experiment [4] (0.3 mg/kg, 48 hours after administration of oxazolone); 16.9 ± 0.2 g in experiment [4] (0.3 mg/kg, 72 hours after administration of oxazolone); 19.0 ± 0.6 g in experiment [4] (0.3 mg/kg, before administration of oxazolone); 17.9 ± 0.3 g in experiment [4] (3 mg/kg, 24 hours after administration of oxazolone); 17.6 ± 0.2 g in experiment [4] (3 mg/kg, 48 hours after administration of oxazolone). For the same compound, the Body weight is given as 16.7 ± 0.2 g in experiment [4] (3 mg/kg, 72 hours after administration of oxazolone); 18.7 ± 0.4 g in experiment [4] (3 mg/kg, before administration of oxazolone); 18.8 ± 0.2& g in experiment [4] (30 mg/kg, 24 hours after administration of oxazolone); 18.4 ± 0.4& g in experiment [4] (30 mg/kg, 48 hours after administration of oxazolone); 18.4 ± 0.5& g in experiment [4] (30 mg/kg, 72 hours after administration of oxazolone); 19.8 ± 0.6 g in experiment [4] (30 mg/kg, before administration of oxazolone). For the same compound, the “Effect on degree of damage of the colon wall” value in experiment [4] (administered intragastrically) was “reduced the degree of damage of the colon wall”. The “Effect on weight loss in animals” value in experiment [4] (administered intragastrically) is “prevented weight loss”. Moreover, the “Intensity of action compared with reference steroid” value in experiment [4] (murine model of ulcerative colitis) was “not inferior to prednisolone by intensity of action”. The “Change in concentration of IFN-γ in blood plasma, week 12 vs week 0” value with IFN-γ is “negative dynamics of IFN-γ concentrations”.
As to `C[C@]12C=CC(=O)C=C1CC[C@@H]1[C@@H]2C(=O)C[C@@]2(C)[C@H]1CC[C@]2(O)C(=O)CO` [Prednisone, reference compound], the Body weight in experiment [4] (10 mg/kg, 24 hours after administration of oxazolone) turned out to be 18.5 ± 0.4 g; in experiment [4] (10 mg/kg, 48 hours after administration of oxazolone) it was 17.9 ± 0.4 g; in experiment [4] (10 mg/kg, 72 hours after administration of oxazolone) it was 17.3 ± 0.6 g; in experiment [4] (10 mg/kg, before administration of oxazolone), 19.0 ± 0.4 g. Moreover, the “The degree of large intestine wall damage, score” value in experiment [4] (10 mg/kg) is 1.80 ± 0.25 score.
